This note sets out measurements from patent publication US7863264B2, “Stabilised compositions having antibacterial activity” (Coloplast A/S, priority 2000, dated 2011).

Series [1] can be described thus: Solubility for 1:1 complexes (silver by atomic absorption spectroscopy). The settings on record: Complex Ag:ligand 1:1; purified water.
Description: The tube is placed on a vortex mixer for 1 h (1500 min^−1) and the tube is centrifuged (3000 min^−1/30 min). The water is decanted off and discarded, and another 10 ml purified water is added. This is repeated 2 times, and after the third centrifugation, the liquid decanted off is filtered (0.22 mm PVDF), preserved with nitric acid and the silver concentration is determined by atomic absorption spectroscopy after appropriate dilution.
Determination of solubility of complexes of silver with various ligands.
Series [2] is described as follows: UV light stability test (visual and CIE-Lab colour measurement). The settings on record: for Visual evaluation of complexes after UV-irradiation: UV lamp 30 minutes, cut off approx. 280 nm; for L2 (CIE-Lab colour coordinate L) / b2 (CIE-Lab colour coordinate b) / a2 (CIE-Lab colour coordinate a): after 30 minutes UV irradiation; for L1 (CIE-Lab colour coordinate L) / b1 (CIE-Lab colour coordinate b) / a1 (CIE-Lab colour coordinate a): before irradiation; for Dist. (distance in CIE-Lab colour space): before vs after 30 minutes UV irradiation. Set-up: key to Dist. (distance in CIE-Lab colour space): Dist = √(ΔL²+Δa²+Δb²) in CIE-Lab, before vs after UV. The format is physicochemical. Here is the method: 1.5 g of complex was placed in a 50 mm Pyrex petri dish. This was covered with a 56 mm Pyrex lid with a UV-cut off at approx. 280 nm and placed 100 mm under a UV lamp (UVASPOT) 400/T 450W metal halide high pressure lamp, Dr. K. Hönle GmbH) for 30 minutes.
The colour was measured, with a Minolta CR300 colour measurement apparatus (CIE-Lab colour coordinates) before (1) and after (2) irradiation. Measurements were made approx. 1 mm above the complex. The distance in colour-space was calculated using the formula Dist=√{square root over (ΔL^2+Δa^2+Δb^2)}, where “L”, “a”, and “b” are the CIE-Lab Colour Coordinates Solubility for 1:1 Complexes:
Compounds according to the production in example 4 were assessed for stability against UV-light (wave length >280 nm). Milled powders were spread in a 1 mm thick layer in ordinary petri dishes and illuminated by the UV-light for 30 minutes.

In series [1], `CC(=O)N1C(=O)[N-]C(=O)C1(C)C.[Ag+]` [Ag/1-acetyl-5,5-dimethyl-hydantoin, Silver 1-acetyl-5,5-dimethyl-hydantoinate] returned a Solubility of 1.100 mg Ag/l.
Regarding `CC1(C)NC(=O)[N-]C1=O.[Ag+]` [Ag/5,5-dimethyl-hydantoin, Silver 5,5-dimethyl-hydantoinate], in series [2], the “Visual evaluation of complexes after UV-irradiation” value (“Visual evaluation of complexes” for short) is listed as “White/no trace of discolouration”, the “L2 (CIE-Lab colour coordinate L)” value is 96.84, the “b2 (CIE-Lab colour coordinate b)” value came out at 0.39 and the “L1 (CIE-Lab colour coordinate L)” value amounted to 94.96. In series [2], the “b1 (CIE-Lab colour coordinate b)” value is listed as 0.12 and the “Dist. (distance in CIE-Lab colour space)” value amounted to 1.90.
As to `O=C1CNC(=O)[N-]1.[Ag+]` [Ag/hydantoin, Silver hydantoinate, reference compound], in series [2], the “Visual evaluation of complexes” value is listed as “Dark brown/heavily discoloured”, the “L2 (CIE-Lab colour coordinate L)” value is on record as 26.03, the “a2 (CIE-Lab colour coordinate a)” value is reported as 10.75 and the “b2 (CIE-Lab colour coordinate b)” value is on record as 12.84. In addition, in series [2], the “L1 (CIE-Lab colour coordinate L)” value was found to be 96.67, the “a1 (CIE-Lab colour coordinate a)” value is given as 0.06, the “b1 (CIE-Lab colour coordinate b)” value is listed as 2.62 and the “Dist. (distance in CIE-Lab colour space)” value is on record as 72.17.
On to “Silver 5,5-diethyl-hydantoinate [Ag/5,5-diethyl-hydantoin]”, for which, in series [2], the “Visual evaluation of complexes” value was “White/no trace of discolouration”, the “L2 (CIE-Lab colour coordinate L)” value stood at 94.05, the “b2 (CIE-Lab colour coordinate b)” value stood at 2.03 and the “L1 (CIE-Lab colour coordinate L)” value stood at 96.76. Further, in series [2], the “b1 (CIE-Lab colour coordinate b)” value is reported as 0.67 and the “Dist. (distance in CIE-Lab colour space)” value is 3.05.
In the case of “Silver 5-methyl-5-isobutyl-hydantoinate [Ag/5-isobutyl-5-methyl-hydantoin]”, in series [2], the “Visual evaluation of complexes” value was “White/no trace of discolouration”, the “L2 (CIE-Lab colour coordinate L)” value is listed as 92.65, the “b2 (CIE-Lab colour coordinate b)” value was determined as 1.74 and the “L1 (CIE-Lab colour coordinate L)” value was found to be 92.4. In addition, in series [2], the “a1 (CIE-Lab colour coordinate a)” value was found to be 0.03, the “b1 (CIE-Lab colour coordinate b)” value was determined as 0.42 and the “Dist. (distance in CIE-Lab colour space)” value is given as 1.36.
Consider “Silver allantoinate [Ag-allantoin 1:1, reference compound]”, for which, in series [2], the “Visual evaluation of complexes” value is recorded as “Dark brown/heavily discoloured”, the “L2 (CIE-Lab colour coordinate L)” value worked out at 32.7, the “a2 (CIE-Lab colour coordinate a)” value was determined as 14.71 and the “b2 (CIE-Lab colour coordinate b)” value is given as 28.41. Besides, in series [2], the “L1 (CIE-Lab colour coordinate L)” value is 92.98, the “b1 (CIE-Lab colour coordinate b)” value is given as 2.3 and the “Dist. (distance in CIE-Lab colour space)” value is listed as 67.44. Further, in series [2] (complex made according to U.S. Pat. No. 2,336,131, UV test not meaningful), the “discolouration of the product” value is listed as “discoloured extremely easily”.
